Tests used:
[1] = target: T1, Estrogen receptor (Homo sapiens) (UniProt P03372); experiment: Displacement of [3H]-estradiol from human full-length ERalpha receptor by competitive radiometric binding assay relative to estradiol
T1 sequence (whole entry): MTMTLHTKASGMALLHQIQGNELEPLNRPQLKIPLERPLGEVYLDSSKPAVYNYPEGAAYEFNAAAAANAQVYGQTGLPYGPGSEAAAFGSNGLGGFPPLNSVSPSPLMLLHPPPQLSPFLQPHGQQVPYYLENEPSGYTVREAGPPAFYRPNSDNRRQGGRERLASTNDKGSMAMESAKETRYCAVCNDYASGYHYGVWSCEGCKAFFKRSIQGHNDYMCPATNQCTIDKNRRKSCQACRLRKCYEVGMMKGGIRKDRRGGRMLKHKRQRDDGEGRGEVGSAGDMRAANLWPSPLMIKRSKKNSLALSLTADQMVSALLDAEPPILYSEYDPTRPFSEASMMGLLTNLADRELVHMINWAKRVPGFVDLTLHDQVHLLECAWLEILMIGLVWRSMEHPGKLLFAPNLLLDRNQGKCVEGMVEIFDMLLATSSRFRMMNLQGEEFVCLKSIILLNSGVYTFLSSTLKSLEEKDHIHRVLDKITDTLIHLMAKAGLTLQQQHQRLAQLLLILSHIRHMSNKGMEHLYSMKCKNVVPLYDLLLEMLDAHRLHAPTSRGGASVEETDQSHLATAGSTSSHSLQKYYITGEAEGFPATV

[2] = target: T2, Estrogen receptor beta (Homo sapiens, UniProt Q92731); experiment: Displacement of [3H]-estradiol from human full-length ERbeta receptor by competitive radiometric binding assay relative to estradiol
[3] = target: T1, Estrogen receptor (Homo sapiens); experiment: Agonist activity at human full-length ERalpha receptor expressed in human HEC1 cells co-expressing (ERE)2-pS2-luc gene assessed as transcriptional activation after 24 hrs by luciferase reporter gene assay relative to estradiol; type: functional, cell-based; conditions: HEC-1
[4] = target: T2, Estrogen receptor beta; experiment: Agonist activity at human full-length ERbeta receptor expressed in human HEC1 cells co-expressing (ERE)2-pS2-luc gene assessed as transcriptional activation after 24 hrs by luciferase reporter gene assay relative to estradiol; type: functional, cell-based; conditions: HEC-1
[5] = target: T2, Estrogen receptor beta
[6] = target: T3, Estrogen receptor (Homo sapiens, UniProt P03372)
T3 sequence (P03372 whole entry): T1 sequence (whole entry)

[7] = target: T2, Estrogen receptor beta; remark: listed apart in the source

T2 sequence (Q92731 whole entry): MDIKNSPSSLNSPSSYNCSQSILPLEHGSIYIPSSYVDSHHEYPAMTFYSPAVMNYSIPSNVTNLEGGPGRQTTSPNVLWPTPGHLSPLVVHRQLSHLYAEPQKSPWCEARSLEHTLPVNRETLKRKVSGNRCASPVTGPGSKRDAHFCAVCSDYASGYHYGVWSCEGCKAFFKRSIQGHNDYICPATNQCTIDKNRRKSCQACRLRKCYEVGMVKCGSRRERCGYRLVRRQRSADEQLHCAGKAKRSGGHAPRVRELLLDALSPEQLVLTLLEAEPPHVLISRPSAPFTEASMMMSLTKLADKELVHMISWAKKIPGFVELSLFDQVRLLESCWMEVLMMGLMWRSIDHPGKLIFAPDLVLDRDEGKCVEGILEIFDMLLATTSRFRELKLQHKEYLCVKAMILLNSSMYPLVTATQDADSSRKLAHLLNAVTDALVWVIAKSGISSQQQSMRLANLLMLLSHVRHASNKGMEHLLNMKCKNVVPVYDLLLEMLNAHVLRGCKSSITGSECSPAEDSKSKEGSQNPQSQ

RBA [1] [%]	RBA [2] [%]	Emax [3] [%]	Emax [4] [%]	Ki [5] [pM]	EC50 [6] [pM]	EC50 [7] [pM]	SMILES
1.88	87.1	100	100	570	8400	1300	O/N=C/c1c(O)ccc(-c2ccc(O)c(F)c2)c1Cl
1.47	15.8						Cc1c(-c2ccc(O)cc2)cc(Cl)c(O)c1/C=N/O
0.92	0.35						O/N=C/c1ccc(-c2ccc(O)cc2)c(-c2ccc(O)cc2)c1O

The remaining lines, values behind:

SMILES	RBA [1] [%]	RBA [2] [%]	Emax [3] [%]	Emax [4] [%]	Ki [5] [pM]	EC50 [6] [pM]	EC50 [7] [pM]
Cc1cc(-c2ccc(O)cc2)c(Cl)c(/C=N/O)c1O	0.074	0.64					
O/N=C/c1c(O)ccc(-c2ccc(O)cc2)c1-c1ccc(O)cc1	88.4	101	90	80		300	500
O/N=C/c1c(O)ccc(-c2ccc(O)cc2)c1Cl	4.46	130	100	100	380	580	230
Cc1c(-c2ccc(O)c(F)c2)cc(Cl)c(O)c1/C=N/O	0.39	7.9					
